This is an account of results in patent US8586571B2, “Heterocyclic compound” (Takeda Pharmaceutical Company Limited, priority 2007, dated 2013).

Broadly, the IC50 is the concentration that gives 50% inhibition.

One assay concerns the target human RBP4 (Homo sapiens (Human), UniProt P02753). The experiment in a line: Binding assay by Retinol-RBP4-TTR ELISA (human-type ELISA). As to conditions: inhibition of binding of RBP4 with retinol and TTR; retinol 0.5 μM; read-out: human RBP4 binding inhibitory activity (IC50 nM). The method, then:
The action of the compound of the present invention to inhibit binding of RBP4 and retinol and TTR was evaluated using the Retinol-RBP4-TTR ELISA (human-type ELISA) system shown below.
Binding Assay by Retinol-RBP4-TTR ELISA
This ELISA system detects a complex of retinol, RBP4 and TTR by Streptoavidin-Biotin reaction.
His-tagged human RBP4 used was prepared in the above-mentioned 1C.
Biotinylate human TTR used was prepared in the above-mentioned 1E.
Streptavidin (20 μl) (10 μg/ml Streptavidin type II (Wako Pure Chemical Industries, Ltd.), 10 mM Tris-HCl (pH 7.5), 10 mM NaCl) was added to a 384 well black maxisorp plate (Nunc), and the plate was subjected to centrifugation (1000 rpm, 1 min) and coated overnight at 4° C. The plate was washed twice with PBST (PBS, 0.05% Tween 20, 100 μl/well) and blocked with 25% Block Ace (Snow Brand Milk Products Co., Ltd., PBS, 100 μl/well). The plate was subjected to centrifugation (1000 rpm, 1 min) and incubated at room temperature for 4 hr or overnight at 4° C. The plate was washed twice with PEST (PBS, 0.05% Tween 20, 100 μl/well), and biotinylated human TTR (stock solution concentration 1.3 mg/ml) diluted 1000-fold with PBST was added at 20 μl/well. The plate was subjected to centrifugation (1000 rpm, 1 min) and stood still at room temperature for 1.5 hr or overnight at 4° C. The plate was washed 3 times with PBST (100 μl/well), and His-tagged human RBP4 (stock solution concentration 0.96 mg/ml) diluted 4000-fold with a reaction buffer (50 mM Tris-HCl, 150 mM NaCl, 0.005% Tween 20, 1 mM DTT, 0.1% BSA) was added at 10 μl/well. The dilution series (8 doses from 10 mM, 200-fold concentration) of the compound was prepared with DMSO, and 1 μl of each was added to a reaction buffer (200 μl) containing retinol (0.5 μM) (Sigma-Aldrich Co.). A reaction buffer (200 μl) containing retinol and added with DMSO was used as a positive control, and reaction buffer (200 μl) free of retinol and added with DMSO was used as a negative control. Mixed solutions of retinol and the compound were added to the plate at 15 μl/well. The mixture was stirred in a platemixer subjected to centrifugation (1000 rpm, 1 min) and reacted at room temperature for 2 hr. A 35% Block Ace solution diluted with the reaction buffer was added at 10 μl/well, centrifuged (1000 rpm, 1 min) and reacted at room temperature for 30 min. The plate was washed 3 times with PBST (100 μl/well) and SuperSignal ELISA Femto Maximum Sensitivity Substrate reagent (PIERCE) was added at 30 μl/well, and the luminescence was measured by a platereader (Wallac).
The binding inhibitory rate of the compound was determined by 100×(test compound value-negative control value)/(positive control value-negative control value). The binding activity (IC50) was calculated from the binding inhibitory rate at each compound concentration using a graph drawing software, Prism (GraphPad Software Inc.).
In general terms: An ELISA detects its analyte on a solid surface through an enzyme-linked reagent.

The next assay addresses RBP4 (Mus musculus (Mouse), UniProt Q00724). Briefly: Blood RBP4 lowering action in C57BL/6J mouse (plasma RBP4 by ELISA). The class given is in vivo. As to conditions: mean±SD (n=5); for RBP4 (% of initial/Control) 4 hr later: 4 hr after single oral 50 mg/kg; for RBP4 (% of initial/Control) 7 hr later: 7 hr after single oral 50 mg/kg; for RBP4 (% of initial/Control) 24 hr later: 24 hr after single oral 50 mg/kg. The method, then:
A blood RBP4 lowering action of the compound of the present invention was evaluated using C57BL/6J mouse.
Male 7- to 15-week-old C57BL/6J mice (Charles River Laboratories Japan Inc.) were individually bred for acclimation for 4-6 days under conditions with free access to CE-2 solid food (CLEA Japan, Inc.), and grouped based on the body weight (5 per group). The next day of grouping, blood samples were collected from the orbital venous plexus, and plasma was separated (0 hr value). Thereafter, the test compounds (Examples 12, 143, 164, 189, 197, 207 and 215) were orally administered at a dose of 50 mg/kg (solvent: 0.5% methylcellulose solution (10 mL/kg)). At 4, 7 and 24 hr after administration of the compounds, blood samples were collected from the orbital venous plexus, and plasma was separated. A 0.5% methylcellulose solution (10 mL/kg) was orally administered to the control group.
The RBP4 level of the collected plasma was measured by ELISA. RBP4 was quantified by the following steps using a rabbit anti-mouse RBP4 polyclonal antibody (Hokudo Co., Ltd). A 96 well ELISA plate was coated with 50 μg/mL of the antibody (100 μL) and stood at 4° C. overnight. After blocking with BlockAce (DAINIPPON PHARMACEUTICAL CO., LTD.), mouse RBP4 or a sample (100 μL) was added and the plate was stood at room temperature for 2 hr. After washing with PBS-0.5% Tween 20, HRP-labeled anti-RBP4 antibody (prepared by labeling RBP4 polyclonal antibody (Hokudo Co., Ltd) with HRP (DOJINDO LABORATORIES)) was added by 100 μL, and the plate was stood at room temperature for 1 hr. After washing, TMB (Dako Cytomations) was added, and the mixture was stood at room temperature for 20 min to allow color development, and the reaction was quenched with 2N sulfuric acid. Thereafter, the absorbance at A450 nm was measured on a platereader. The amount of change from the initial value of each animal was determined as a relative value from the control group (% of initial/Control) at each time point. The results are shown in the following in mean±standard deviation (n=5).

For another assay, the system named is Zucker fa/fa rat. Briefly: Anti-diabetes action using Zucker fa/fa rat (Takeda Pharmaceutical Company Limited). The class given is in vivo. As to conditions: oral 30 mg/kg for 2 weeks. The method, then:
An anti-diabetes action and a blood triglyceride (hereinafter TG)-lowering action of the compound of the present invention were evaluated using Zucker fa/fa rats.
Male 7-week-old Zucker fa/fa rats (Takeda Pharmaceutical Company Limited) were bred in group on CE-2 solid food (CLEA Japan, Inc.) until 7-week-old, thereafter bred on high-fat diet D06110702 (LSG Corporation) for acclimation under conditions with free access to food. At 11-week-old, the rats were grouped based on the body weight, blood glucose level, glycated hemoglobin level, blood RBP4 level and blood insulin level value (6 per group). Thereafter, the test compound (Example 143) was orally administered at a dose of 30 mg/kg (solvent: 0.5% methylcellulose solution (5 mL/kg)) for 2 weeks. The next day of the final administration of the compound, blood samples were collected from the tail vein, and plasma was separated. Using the collected plasma, (1) RBP4 concentration and (2) glycated hemoglobin level were measured. (1) was quantified according to the protocol described in Experimental Example 2. (2) was measured using Tosoh Corporation automatic glycohemoglobin analyzer (HLC-723 GHbV A1c2.2 or HLC-723G7 GHbV A1c2.2).
A 0.5% methylcellulose solution (5 mL/kg) was orally administered to the control group. […] The results are shown in the is following in mean±standard deviation (n=6). In the following Table, glycated hemoglobin change is obtained by subtracting the value before administration from that after administration.

As for `CC(C)(C)c1cc(F)ccc1OC1CN(C(=O)c2ccccn2)C1` [Example 6, (3-(2-tert-butyl-4-fluorophenoxy)azetidin-1-yl)(pyridin-2-yl)methanone], on human RBP4, the IC50 worked out at 20 nM.

As for `CC(C)(C)c1ccccc1OC1CN(C(=O)CC(=O)O)C1` [Example 10, 3-(3-(2-tert-butylphenoxy)azetidin-1-yl)-3-oxopropanoic acid], on human RBP4, the half-inhibitory concentration (IC50) amounted to 36 nM.

Regarding `CC(C)(C)c1ccccc1OC1CN(C(=O)C2(C(=O)O)CC2)C1` [Example 14, 1-(3-(2-tert-butylphenoxy)azetidine-1-carbonyl)cyclopropanecarboxylic acid], the IC50 on human RBP4 is 24 nM.

Regarding `CC(C)(C)c1ccccc1SC1CN(C(=O)c2ccccn2)C1` [Example 17, (3-(2-tert-butylphenylthio)azetidin-1-yl)(pyridin-2-yl)methanone], the IC50 at human RBP4 is 10 nM.

In the case of `CC(C)(C)c1ccccc1S(=O)(=O)C1CN(C(=O)c2ccccc2)C1` [Example 20, (3-(2-tert-butylphenylsulfonyl)azetidin-1-yl)(phenyl)methanone], on human RBP4, the IC50 amounted to 290 nM.

Regarding `CC(C)(C)c1ccccc1OC1CCN(C(=O)c2ccccn2)CC1` [Example 50, (4-(2-tert-butylphenoxy)piperidin-1-yl)(pyridin-2-yl)methanone], on human RBP4, the IC50 turned out to be 5 nM.

`CC(C)(C)c1cc(F)ccc1OC1CN(C(=O)CCC(=O)O)C1` [Example 80, 4-[3-(2-tert-butyl-4-fluorophenoxy)azetidin-1-yl]-4-oxobutanoic acid]: the 50% inhibitory concentration (IC50) on human RBP4 is 20 nM.

With `CCCCCS(=O)(=O)NC(=O)C(=O)N1CCC(COc2ccccc2C(C)(C)C)CC1` [Example 121, 2-{4-[(2-tert-butylphenoxy)methyl]piperidin-1-yl}-2-oxo-N-(pentylsulfonyl)acetamide], the IC50 on human RBP4 came out at 790 nM.

With `CC(C)(C)c1cc(F)ccc1OCC1CN(C(=O)CC(=O)O)C1` [Example 143, 3-{3-[(2-tert-butyl-4-fluorophenoxy)methyl]azetidin-1-yl}-3-oxopropanoic acid], the IC50 on human RBP4 worked out at 23 nM. For the same compound, at RBP4, the “RBP4 (% of initial/Control) 4 hr later” value is on record as 46.7 ± 6.6 % of initial/Control, the “RBP4 (% of initial/Control) 7 hr later” value is reported as 36.2 ± 4.2 % of initial/Control and the “RBP4 (% of initial/Control) 24 hr later” value is recorded as 45.2 ± 9.1 % of initial/Control. Also, in the assay with Zucker fa/fa rat (versus control), the “blood RBP4 concentration (result in words)” value is given as “significant decrease” and the “glycated hemoglobin (result in words)” value was “significant decrease”. In the assay with Zucker fa/fa rat (plasma, high-fat diet, mean±SD (n=6)), the “RBP4” value was found to be 7.3 ± 1.2 µg/mL. For the same compound, the “glycated hemoglobin change(%)” value in the assay with Zucker fa/fa rat (value after minus before administration, mean±SD (n=6)) amounted to 0.6 ± 0.4%.

In the case of `CC(C)(C)c1cc(Cl)ccc1OC1CN(C(=O)c2ccccn2)C1` [Example 164, 2-{[3-(2-tert-butyl-4-chlorophenoxy)azetidin-1-yl]carbonyl}pyridine], the IC50 at human RBP4 came out at 15 nM. At RBP4, the “RBP4 (% of initial/Control) 4 hr later” value is listed as 55.6 ± 6.3 % of initial/Control, the “RBP4 (% of initial/Control) 7 hr later” value was 46.4 ± 7.2 % of initial/Control and the “RBP4 (% of initial/Control) 24 hr later” value is listed as 74.5 ± 8.9 % of initial/Control.

In the case of `CC(C)(C)c1cc(Cl)ccc1OC1CN(C(=O)CCC(=O)O)C1` [Example 189, 4-[3-(2-tert-butyl-4-chlorophenoxy)azetidin-1-yl]-4-oxobutanoic acid], the IC50 at human RBP4 was 71 nM. Moreover, on RBP4, the “RBP4 (% of initial/Control) 4 hr later” value was 51.5 ± 1.7 % of initial/Control, the “RBP4 (% of initial/Control) 7 hr later” value is on record as 42.1 ± 1.3 % of initial/Control and the “RBP4 (% of initial/Control) 24 hr later” value was 69.7 ± 9.6 % of initial/Control.

For `CC(C)(C)c1ccccc1OCC1CCN(C(=O)CC(=O)O)C1` (stereo not drawn) [Example 197, 3-{3-[(2-tert-butylphenoxy)methyl]pyrrolidin-1-yl}-3-oxopropanoic acid], on human RBP4, the IC50 was found to be 40 nM. At RBP4, the “RBP4 (% of initial/Control) 4 hr later” value is reported as 39.2 ± 1.4 % of initial/Control, the “RBP4 (% of initial/Control) 7 hr later” value is 29.2 ± 1.0 % of initial/Control and the “RBP4 (% of initial/Control) 24 hr later” value is listed as 40.4 ± 3.0 % of initial/Control.

Regarding `CC(C)(C)c1cc(Cl)ccc1OCC1CN(C(=O)C(=O)O)C1` [Example 207, {3-[(2-tert-butyl-4-chlorophenoxy)methyl]azetidin-1-yl}(oxo)acetic acid], the IC50 at human RBP4 is 12 nM. For the same compound, at RBP4, the “RBP4 (% of initial/Control) 4 hr later” value was 55.6 ± 1.0 % of initial/Control, the “RBP4 (% of initial/Control) 7 hr later” value is 49.0 ± 1.3 % of initial/Control and the “RBP4 (% of initial/Control) 24 hr later” value is on record as 69.5 ± 6.6 % of initial/Control.

Take `CC(C)(C)c1cc(F)ccc1OCC1CCN(C(=O)CC(=O)O)C1` (stereo not drawn) [Example 215, 3-{3-[(2-tert-butyl-4-fluorophenoxy)methyl]pyrrolidin-1-yl}-3-oxopropanoic acid]: on human RBP4, the IC50 is 34 nM. At RBP4, the “RBP4 (% of initial/Control) 4 hr later” value is 64.3 ± 1.2 % of initial/Control, the “RBP4 (% of initial/Control) 7 hr later” value is 60.6 ± 0.6 % of initial/Control and the “RBP4 (% of initial/Control) 24 hr later” value is 64.7 ± 4.3 % of initial/Control.
